Experimental data taken from patent publication US9493426B2, “Quinazolinone derivatives useful as FGFR kinase modulators” (priority 2013, dated 2016).
Where two headings read alike, the source gives them in different places.

Tests used:
[1] = target: Ba/F3-FGFR4-transfected cells (Homo sapiens, UniProt P22455, cells depend on it, form not given); experiment: Ba/F3-FGFR4 cellular proliferation assay; format: cell-based; conditions: 24 hours, Alamar Blue
Method: Ba/F3-FGFR4 (Cellular Proliferation Assay)
(§1) In a 384 well plate, 100 nl of compound dilution in DMSO was sprayed before adding 50 μl cell culture medium (phenol red free RPMI-1640, 10% FBS, 2 mM L-Glutamine and 50 μg/ml Gentamycin) containing 20000 cells per well of Ba/F3-FGFR4-transfected cells. Cells were put in an incubator at 37° C. and 5% CO2. After 24 hours, 10 μl of Alamar Blue solution (0.5 mM K3Fe(CN)6, 0.5 mM K4Fe(CN)6, 0.15 mM Resazurin and 100 mM Phosphate Buffer) was added to the wells, incubated for 4 hours at 37° C. and 5% CO2 before RFU's (Relative Fluorescence Units) (ex. 540 nm., em. 590 nm.) were measured in a fluorescence plate reader.
In this assay, the inhibitory effect of different compound concentrations (range 10 μM to 0.1 nM) was determined and used to calculate an IC50 (M) and pIC50 (−log IC50) value.

FGFR3 (h) = FGFR3 (h) (Homo sapiens, UniProt P22607); experiment: FGFR3 (enzymatic assay), TR-FRET; format: biochemical
FGFR1 (h) = FGFR1 (h) (Homo sapiens, UniProt P11362); experiment: FGFR1 (enzymatic assay), TR-FRET; format: biochemical
FGFR2 (h) = FGFR2 (h) (Homo sapiens, UniProt P21802); experiment: FGFR2 (enzymatic assay), TR-FRET; format: biochemical
FGFR4 (h) = FGFR4 (h) (Homo sapiens, UniProt P22455); experiment: FGFR4 (enzymatic assay), TR-FRET; format: biochemical; conditions: 5 μM ATP; pIC50 = -log IC50 (M); read-out: FGFR 4 pIC50 (converted)
KDR (h) = KDR (h) (Homo sapiens, UniProt P35968); experiment: KDR (VEGFR2) (enzymatic assay), TR-FRET; format: biochemical; conditions: 3 μM ATP; pIC50 = -log IC50 (M); read-out: VEGFR KDR pIC50 (converted)
Method: KDR (VEGFR2) (Enzymatic Assay)
In a final reaction volume of 30 μL, KDR (h) (150 ng/ml) was incubated with 50 mM HEPES pH 7.5, 6 mM MnCl2, 1 mM DTT, 0.1 mM Na3VO4, 0.01% Triton-X-100, 500 nM Btn-Flt3 and 3 μM ATP in the presence of compound (1% DMSO final). After incubation for 120 minutes at room temperature the reaction was stopped with 2.27 nM EU-anti P-Tyr, 7 mM EDTA, 31.25 nM SA-XL-665 and 0.02% BSA which was present for 60 minutes at room temperature. Time-Resolved Fluorescence Resonance Energy Transfer (TR-FRET) signal (ex340 nm. Em 620 nm, em 655 nm) was measured afterwards and results are expressed in RFU (Relative Fluorescence Units). In this assay, the inhibitory effect of different compound concentrations (range 10 μM to 0.1 nM) was determined and used to calculate an IC50 (M) and pIC50 (−log IC50) value.

[2] = target: T1, Ba/F3-KDR-transfected cells (Homo sapiens, UniProt P35968, cells depend on it, form not given); experiment: Ba/F3-KDR (minus IL3 or plus IL3) cellular proliferation assay; format: cell-based; conditions: 24 hours, Alamar Blue
T1 construct: BAF3-KDR (MIN IL3 pIC50); other: minus IL3; 24 hours, Alamar Blue
Method: Ba/F3-KDR (Minus IL3 or Plus IL3) (Cellular Proliferation Assay)
as §1, with “Ba/F3-KDR-transfected” for “Ba/F3-FGFR4-transfected”
(§2) In this assay, the inhibitory effect of different compound concentrations (range 10 μM to 0.1 nM) was determined and used to calculate an IC50 (M) and pIC50 (−log IC50) value. As a counterscreen the same experiment was performed in the presence of 10 ng/ml murine IL3.

[3] = target: T2, Ba/F3-FGFR1-transfected cells (Homo sapiens, UniProt P11362); experiment: Ba/F3-FGFR1 (minus IL3 or plus IL3) cellular proliferation assay; format: cell-based; conditions: 24 hours, Alamar Blue
T2 construct: other: minus IL3; 24 hours, Alamar Blue
Method: Ba/F3-FGFR1 (Minus IL3 or Plus IL3) (Cellular Proliferation Assay)
as §1, with “Ba/F3-FGFR1-transfected” for “Ba/F3-FGFR4-transfected”
as §2

[4] = target: T3, Ba/F3-FGFR3-transfected cells (Homo sapiens, UniProt P22607, cells depend on it, form not given); experiment: Ba/F3-FGFR3 (minus IL3 or plus IL3) cellular proliferation assay; format: cell-based; conditions: 24 hours, Alamar Blue
T3 construct: BAF3-FGFR3 (MIN IL3 pIC50); other: minus IL3; 24 hours, Alamar Blue
Method: Ba/F3-FGFR3 (Minus IL3 or Plus IL3) (Cellular Proliferation Assay)
as §1, with “Ba/F3-FGFR3-transfected” for “Ba/F3-FGFR4-transfected”
as §2

FGFR4 = target: T4, FGFR4 (Homo sapiens, UniProt P22455); experiment: Enzyme binding assay (KINOMEscan) FGFR4; conditions: pKd = -log Kd (M), read-out: FGFR4_pKd (converted)
T4 construct: purchased DiscoveRx Corporation
Method: (§3) Enzyme Binding Assays (KINOMEscan®)
(§4) Kinase enzyme binding affinities of compounds disclosed herein were determined using the KINOMEscan® technology performed by DiscoveRx Corporation, San Diego, Calif., USA (www.kinomescan.com).

FGFR2 = target: T5, FGFR2 (Homo sapiens, UniProt P21802); experiment: Enzyme binding assay (KINOMEscan) FGFR2; conditions: pKd = -log Kd (M), read-out: FGFR2_pKd (converted)
T5 construct: purchased DiscoveRx Corporation
Method: as §3, §4

VEGFR2 = target: T6, VEGFR2 (Homo sapiens, UniProt P35968); experiment: Enzyme binding assay (KINOMEscan) VEGFR2; conditions: pKd = -log Kd (M), read-out: VEGFR2_pKd (converted)
T6 construct: purchased DiscoveRx Corporation
Method: as §3, §4

FGFR3 = target: T7, FGFR3 (Homo sapiens, UniProt P22607); experiment: Enzyme binding assay (KINOMEscan) FGFR3; conditions: pKd = -log Kd (M), read-out: FGFR3_pKd (converted)
T7 construct: purchased DiscoveRx Corporation
Method: as §3, §4

FGFR1 = target: T8, FGFR1 (Homo sapiens, UniProt P11362); experiment: Enzyme binding assay (KINOMEscan) FGFR1; conditions: FGFR1_pKd, pKd = -log Kd (M)
T8 construct: purchased DiscoveRx Corporation
Method: as §3, §4

[5] = 25 μM ATP, pIC50 = -log IC50 (M), read-out: FGFR3 pIC50 (converted)
[6] = 0.4 μM ATP, pIC50 = -log IC50 (M), read-out: FGFR 2 pIC50 (converted)

T2 sequence (P11362 whole entry, change not shown): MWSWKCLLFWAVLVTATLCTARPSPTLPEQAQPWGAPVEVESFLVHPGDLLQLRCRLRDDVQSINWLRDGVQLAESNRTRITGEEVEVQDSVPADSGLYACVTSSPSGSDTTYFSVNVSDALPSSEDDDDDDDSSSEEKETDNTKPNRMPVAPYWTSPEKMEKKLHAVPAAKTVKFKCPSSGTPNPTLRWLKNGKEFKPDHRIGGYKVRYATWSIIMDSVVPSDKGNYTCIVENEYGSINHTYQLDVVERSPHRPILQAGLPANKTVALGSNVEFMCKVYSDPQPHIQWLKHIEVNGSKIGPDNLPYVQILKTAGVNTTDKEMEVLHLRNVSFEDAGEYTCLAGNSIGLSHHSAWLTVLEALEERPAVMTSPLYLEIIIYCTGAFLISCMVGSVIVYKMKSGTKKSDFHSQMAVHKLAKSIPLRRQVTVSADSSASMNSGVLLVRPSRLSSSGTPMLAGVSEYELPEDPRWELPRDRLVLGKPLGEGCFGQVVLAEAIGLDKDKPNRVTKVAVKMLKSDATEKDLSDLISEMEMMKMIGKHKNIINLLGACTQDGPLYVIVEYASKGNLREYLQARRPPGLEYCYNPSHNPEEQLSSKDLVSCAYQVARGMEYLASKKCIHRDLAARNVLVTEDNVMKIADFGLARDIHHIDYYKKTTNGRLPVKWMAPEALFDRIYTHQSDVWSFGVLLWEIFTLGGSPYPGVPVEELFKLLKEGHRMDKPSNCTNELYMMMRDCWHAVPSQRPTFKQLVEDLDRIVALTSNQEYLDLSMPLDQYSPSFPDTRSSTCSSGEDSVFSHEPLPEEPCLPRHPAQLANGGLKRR
T1 sequence (P35968 whole entry, looked up, change not shown): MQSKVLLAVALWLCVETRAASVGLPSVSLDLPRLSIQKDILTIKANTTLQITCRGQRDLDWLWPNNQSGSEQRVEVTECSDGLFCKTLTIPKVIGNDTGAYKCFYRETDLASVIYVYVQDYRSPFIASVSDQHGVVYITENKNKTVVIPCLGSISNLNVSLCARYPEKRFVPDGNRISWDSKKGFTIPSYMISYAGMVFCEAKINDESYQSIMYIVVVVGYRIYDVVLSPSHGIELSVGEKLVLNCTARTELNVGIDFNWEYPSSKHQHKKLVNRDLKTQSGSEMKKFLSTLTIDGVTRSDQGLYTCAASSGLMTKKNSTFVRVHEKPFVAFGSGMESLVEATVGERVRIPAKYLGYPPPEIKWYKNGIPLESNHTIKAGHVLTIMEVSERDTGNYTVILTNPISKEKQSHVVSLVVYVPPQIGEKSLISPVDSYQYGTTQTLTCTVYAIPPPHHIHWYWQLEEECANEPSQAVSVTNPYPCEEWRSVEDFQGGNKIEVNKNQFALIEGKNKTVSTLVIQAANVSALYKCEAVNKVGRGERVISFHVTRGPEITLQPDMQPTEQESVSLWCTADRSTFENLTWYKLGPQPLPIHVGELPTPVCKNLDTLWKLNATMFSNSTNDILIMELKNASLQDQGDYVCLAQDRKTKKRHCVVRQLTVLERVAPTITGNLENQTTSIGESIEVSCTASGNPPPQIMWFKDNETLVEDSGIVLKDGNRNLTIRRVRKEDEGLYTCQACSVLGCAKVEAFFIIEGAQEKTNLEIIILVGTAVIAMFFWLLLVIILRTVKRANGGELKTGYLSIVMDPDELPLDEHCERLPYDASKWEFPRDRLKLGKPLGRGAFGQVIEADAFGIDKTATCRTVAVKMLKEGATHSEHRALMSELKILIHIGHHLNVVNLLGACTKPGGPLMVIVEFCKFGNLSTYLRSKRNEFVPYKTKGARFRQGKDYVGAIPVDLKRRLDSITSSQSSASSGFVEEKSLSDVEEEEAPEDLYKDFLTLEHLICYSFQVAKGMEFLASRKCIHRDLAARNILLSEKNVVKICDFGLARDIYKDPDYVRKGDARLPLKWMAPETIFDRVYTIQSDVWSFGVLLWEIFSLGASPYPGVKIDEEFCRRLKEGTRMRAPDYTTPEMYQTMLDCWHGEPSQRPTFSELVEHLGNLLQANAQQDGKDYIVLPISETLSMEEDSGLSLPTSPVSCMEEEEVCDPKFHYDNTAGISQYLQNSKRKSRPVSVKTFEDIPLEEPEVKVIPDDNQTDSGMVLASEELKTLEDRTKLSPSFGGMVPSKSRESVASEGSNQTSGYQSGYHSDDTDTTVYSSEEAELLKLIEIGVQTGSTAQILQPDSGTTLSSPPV
T5 sequence (P21802 22-821): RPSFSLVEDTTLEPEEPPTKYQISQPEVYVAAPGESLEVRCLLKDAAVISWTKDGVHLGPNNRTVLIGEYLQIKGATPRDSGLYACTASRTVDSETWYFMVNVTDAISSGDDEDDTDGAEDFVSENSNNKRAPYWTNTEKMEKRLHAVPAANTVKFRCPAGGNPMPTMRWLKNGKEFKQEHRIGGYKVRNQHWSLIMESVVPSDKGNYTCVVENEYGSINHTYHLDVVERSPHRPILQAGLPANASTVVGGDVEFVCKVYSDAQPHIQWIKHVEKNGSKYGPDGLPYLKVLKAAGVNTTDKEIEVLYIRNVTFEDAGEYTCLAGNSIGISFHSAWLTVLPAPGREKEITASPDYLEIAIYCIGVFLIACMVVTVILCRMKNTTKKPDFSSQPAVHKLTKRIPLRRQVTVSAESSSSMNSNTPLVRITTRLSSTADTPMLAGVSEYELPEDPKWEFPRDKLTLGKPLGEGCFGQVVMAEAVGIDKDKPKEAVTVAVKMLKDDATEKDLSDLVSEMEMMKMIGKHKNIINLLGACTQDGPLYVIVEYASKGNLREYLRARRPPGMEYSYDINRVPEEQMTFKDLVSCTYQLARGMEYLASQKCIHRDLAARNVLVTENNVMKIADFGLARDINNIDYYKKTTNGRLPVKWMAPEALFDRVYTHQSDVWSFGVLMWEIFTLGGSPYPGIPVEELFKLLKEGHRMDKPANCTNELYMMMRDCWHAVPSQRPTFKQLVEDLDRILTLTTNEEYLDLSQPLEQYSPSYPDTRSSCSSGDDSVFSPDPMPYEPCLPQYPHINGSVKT
FGFR2 (h), sequence (P21802 22-821): as above
T6 sequence (P35968 20-1356): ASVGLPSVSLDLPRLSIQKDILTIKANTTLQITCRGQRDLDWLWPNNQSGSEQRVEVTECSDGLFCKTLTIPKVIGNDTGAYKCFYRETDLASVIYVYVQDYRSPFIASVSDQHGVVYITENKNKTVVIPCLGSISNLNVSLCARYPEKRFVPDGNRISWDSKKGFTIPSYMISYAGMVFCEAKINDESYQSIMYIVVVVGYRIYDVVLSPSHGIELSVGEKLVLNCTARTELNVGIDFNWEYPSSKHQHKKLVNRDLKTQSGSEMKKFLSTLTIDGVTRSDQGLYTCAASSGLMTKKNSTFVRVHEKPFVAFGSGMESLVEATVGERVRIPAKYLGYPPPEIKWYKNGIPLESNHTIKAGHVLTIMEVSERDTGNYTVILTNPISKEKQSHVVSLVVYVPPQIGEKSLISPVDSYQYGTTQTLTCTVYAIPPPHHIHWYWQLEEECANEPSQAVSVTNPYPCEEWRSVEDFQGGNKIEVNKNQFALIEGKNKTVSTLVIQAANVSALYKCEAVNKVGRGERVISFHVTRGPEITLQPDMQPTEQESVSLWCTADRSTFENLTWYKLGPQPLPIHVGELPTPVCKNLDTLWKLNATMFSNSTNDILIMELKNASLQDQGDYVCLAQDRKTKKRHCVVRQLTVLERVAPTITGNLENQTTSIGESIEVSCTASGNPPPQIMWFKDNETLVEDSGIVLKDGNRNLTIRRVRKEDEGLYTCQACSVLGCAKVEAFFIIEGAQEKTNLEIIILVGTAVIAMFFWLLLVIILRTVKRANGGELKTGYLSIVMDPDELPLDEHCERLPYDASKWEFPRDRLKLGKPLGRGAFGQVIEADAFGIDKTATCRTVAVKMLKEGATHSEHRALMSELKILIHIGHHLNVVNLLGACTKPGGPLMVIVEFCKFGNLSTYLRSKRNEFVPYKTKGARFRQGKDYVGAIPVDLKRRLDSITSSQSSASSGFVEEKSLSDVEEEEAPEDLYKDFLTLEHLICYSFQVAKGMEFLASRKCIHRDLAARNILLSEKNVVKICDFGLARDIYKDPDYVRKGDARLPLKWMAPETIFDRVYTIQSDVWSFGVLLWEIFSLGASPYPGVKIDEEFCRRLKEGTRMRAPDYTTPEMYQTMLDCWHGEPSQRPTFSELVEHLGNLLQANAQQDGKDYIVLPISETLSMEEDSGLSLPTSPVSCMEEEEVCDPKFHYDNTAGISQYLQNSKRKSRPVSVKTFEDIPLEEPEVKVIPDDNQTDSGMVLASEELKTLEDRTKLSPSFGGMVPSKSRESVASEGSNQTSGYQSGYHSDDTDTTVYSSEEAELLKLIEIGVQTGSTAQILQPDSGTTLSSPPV
KDR (h), sequence (P35968 20-1356): as above

| Structure (SMILES) | melting point [°C] | BAF3-FGFR4 (pIC50) [1] | IC50 (FGFR3 (h); [5]) [M] | IC50 (FGFR1 (h)) [nM] | IC50 (FGFR2 (h); [6]) [M] | IC50 (FGFR4 (h)) [M] | IC50 (KDR (h)) [M] | BAF3-KDR (MIN IL3 pIC50) [2] | BAF3-FGFR1 (MIN IL3 pIC50) [3] | BAF3-FGFR3 (MIN IL3 pIC50) [4] | IC50 (FGFR3 (h)) [M] | IC50 (FGFR2 (h)) [M] | Kd (FGFR4) [M] | Kd (FGFR2) [M] | Kd (VEGFR2) [M] | Kd (FGFR3) [M] | Kd (FGFR1) [M] |
| --- | --- | --- | --- | --- | --- | --- | --- | --- | --- | --- | --- | --- | --- | --- | --- | --- | --- |
| COc1cc(OC)cc(C(=O)c2ccc3ncn(-c4cnn(C)c4)c(=O)c3c2)c1 [Compound 24] | 194 | <5 | 7.94e-07 | > 1000 | 7.94e-07 | > 1e-06 | > 1e-06 | <5 | <5 | <5 |  |  |  |  |  |  |  |
| COc1cc(OC)c(F)c(N(CCNC(C)C)c2ccc3ncn(-c4cnn(C)c4)c(=O)c3c2)c1 [Compound 17] | 132 | 6.8 | 1.58e-08 | 7.94 | 1e-08 | 3.16e-08 | 1.26e-07 | 5.5 | 7.6 | 7.7 |  |  |  |  |  |  |  |
| COc1cc(OC)c(F)c(N(CCO)c2ccc3ncn(-c4cnn(C)c4)c(=O)c3c2)c1F [Compound 18] | 165 | 6.6 |  | 1.58 | 2.51e-09 | 5.01e-09 | 3.98e-08 | 5.6 | 7.2 | ~7.68 | 1.58e-09 |  |  |  |  |  |  |
| COc1cccc(C(=O)c2ccc3ncn(-c4cnn(C)c4)c(=O)c3c2)c1 [Compound 23] |  | <5 | > 1e-06 | > 1000 | > 1e-06 | > 1e-06 | > 1e-06 | <5 | <5 | <5 |  |  |  |  |  |  |  |
| COc1cc(OC)c(F)c(N(CCO)c2ccc3ncn(-c4ccccc4)c(=O)c3c2)c1F [Compound 1] | 169 | 5.6 | 6.31e-09 | 10 | 6.31e-09 | 3.98e-08 | 2.51e-07 | ~5 | 6.0 | 6.4 |  |  |  |  |  |  |  |
| COc1cc(OC)c(Cl)c(N(CCNC(C)C)c2ccc3ncn(-c4cnn(C)c4)c(=O)c3c2)c1Cl [Compound 11] | 195 | 6.3 | 3.98e-08 | 12.6 | 6.31e-08 | 1.58e-07 | 5.01e-07 | 5.4 | 7.4 | 7.3 |  |  |  |  |  |  |  |
| COc1cc(OC)c(F)c(N(Cc2ncc[nH]2)c2ccc3ncn(-c4ccccc4)c(=O)c3c2)c1F [Compound 4] |  | 5.4 | 7.94e-09 | 15.8 | 1.26e-08 | 2.51e-08 | > 1e-06 | <5 | 6.1 | 6.2 |  |  |  |  |  |  |  |
| COc1cc(OC)c(Cl)c(N(Cc2ncc[nH]2)c2ccc3ncn(-c4cnn(C)c4)c(=O)c3c2)c1Cl [Compound 13] |  | 5.2 | 1.26e-08 | 15.8 |  | 1.26e-07 | 2.51e-07 | 5.1 | 5.5 | 5.9 |  | 1.58e-08 |  |  |  |  |  |
| COc1cc(OC)c(F)c(N(Cc2ncc[nH]2)c2ccc3ncn(C4CCOCC4)c(=O)c3c2)c1 [Compound 75] | > 260 |  |  |  |  |  |  |  |  |  |  |  | 2e-07 | 1e-08 | > 3.16e-06 | 1.58e-08 | 3.98e-08 |
| COc1cc(OC)c(F)c(N(CCO)c2ccc3ncn(-c4cncnc4)c(=O)c3c2)c1F [Compound 76] | 178 |  |  |  |  |  |  |  |  |  |  |  | 2e-07 | 1.58e-08 | > 3.16e-06 | 3.16e-08 | 6.31e-08 |
| COc1cc(OC)c(F)c(N(Cc2ncc[nH]2)c2ccc3ncn(C4CCNCC4)c(=O)c3c2)c1 [Compound 45] | 260 |  |  |  |  |  |  |  |  |  |  |  | 5.01e-07 | 3.16e-08 | > 3.16e-06 | 7.94e-08 | 7.94e-08 |
| COc1cc(OC)c(F)c(N(Cc2ncc[nH]2)c2ccc3ncn(C4CCNCC4)c(=O)c3c2)c1F [Compound 43] | 223 |  |  |  |  |  |  |  |  |  |  |  | 5.01e-08 | 7.94e-09 | > 3.16e-06 | 2e-08 | 1.58e-08 |
| COc1cc(OC)cc(N(CCNC(C)C)c2ccc3ncn(-c4cccnc4)c(=O)c3c2)c1 [Compound 34] | 136 |  |  |  |  |  |  |  |  |  |  |  | 6.31e-07 | 5.01e-08 | > 3.16e-06 | 1.26e-07 | 6.31e-08 |
